As usually defined, the IC50 is the concentration at which inhibition is half-maximal.

Data on one compound can be found in PMC11678425, “(-)-Syringaresinol Exerts an Antidepressant-like Activity in Mice by Noncompetitive Inhibition of the Serotonin Transporter” (Pharmaceuticals, 2024).

The target in one test is T1, hSERT L565A (Homo sapiens, UniProt P31645, L565A).
T1 construct: forward and reverse primers were used to amplify a full-length hSERT; expressed in transfected cells; host or cells: HeLa
T1 sequence (P31645 whole entry L565A): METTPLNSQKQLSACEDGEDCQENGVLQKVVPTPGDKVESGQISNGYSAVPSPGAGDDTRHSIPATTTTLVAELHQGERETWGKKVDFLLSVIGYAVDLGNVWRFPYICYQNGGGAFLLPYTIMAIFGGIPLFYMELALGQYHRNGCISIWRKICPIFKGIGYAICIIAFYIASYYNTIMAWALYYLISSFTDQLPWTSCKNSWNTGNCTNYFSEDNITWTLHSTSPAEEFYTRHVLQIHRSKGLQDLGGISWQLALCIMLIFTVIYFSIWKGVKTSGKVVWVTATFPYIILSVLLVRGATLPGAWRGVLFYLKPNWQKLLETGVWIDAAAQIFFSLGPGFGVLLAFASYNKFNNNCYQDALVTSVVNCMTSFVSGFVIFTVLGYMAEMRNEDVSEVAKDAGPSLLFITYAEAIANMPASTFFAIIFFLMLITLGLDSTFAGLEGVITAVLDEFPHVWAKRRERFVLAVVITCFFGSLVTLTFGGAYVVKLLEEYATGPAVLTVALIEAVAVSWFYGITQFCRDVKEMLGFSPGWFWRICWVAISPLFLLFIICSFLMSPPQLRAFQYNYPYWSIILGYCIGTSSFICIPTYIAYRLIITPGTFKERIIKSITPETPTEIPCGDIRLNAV
Briefly: APP^+ uptake, hSERT L565A. Type of test: cell-based. Conditions: S2 site mutant, read-out: SYR IC50 for Transport.

The target in a further test is T2, hSERT S438T (Homo sapiens, UniProt P31645, S438T).
T2 construct: forward and reverse primers were used to amplify a full-length hSERT; expressed in transfected cells; host or cells: HeLa
T2 sequence (P31645 whole entry S438T): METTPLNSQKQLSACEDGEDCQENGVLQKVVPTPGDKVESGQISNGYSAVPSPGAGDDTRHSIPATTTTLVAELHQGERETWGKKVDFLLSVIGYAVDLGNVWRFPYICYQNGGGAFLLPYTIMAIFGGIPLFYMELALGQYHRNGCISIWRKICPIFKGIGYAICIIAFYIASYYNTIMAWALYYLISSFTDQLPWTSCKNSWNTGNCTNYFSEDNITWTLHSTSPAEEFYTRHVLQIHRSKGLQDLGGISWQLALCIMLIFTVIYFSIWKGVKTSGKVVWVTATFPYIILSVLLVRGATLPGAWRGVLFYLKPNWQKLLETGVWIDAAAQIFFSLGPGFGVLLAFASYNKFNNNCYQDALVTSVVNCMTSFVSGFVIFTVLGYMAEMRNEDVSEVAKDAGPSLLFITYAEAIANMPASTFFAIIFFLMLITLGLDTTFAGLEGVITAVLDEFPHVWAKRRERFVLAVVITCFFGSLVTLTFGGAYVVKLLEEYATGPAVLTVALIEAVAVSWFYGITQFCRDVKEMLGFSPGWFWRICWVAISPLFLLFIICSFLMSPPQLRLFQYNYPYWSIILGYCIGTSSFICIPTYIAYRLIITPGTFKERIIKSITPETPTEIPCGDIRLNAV
Briefly: ASP^+ binding, hSERT S438T. Particulars: S1 site mutant, read-out: SYR IC50 for Binding.

For test [1], the system named is CUMS mice. The experiment in a line: Novelty suppressed feeding test (NSFT) in CUMS mice. Type of test: in vivo, mouse. As to the method: (§1) C57BL/6 adult (6–8 weeks, body weight, 18–22 g) male mice were maintained and handled in a standard condition at the Experimental Animal Center of Southern Medical University (Guangzhou, China). Animal use was approved by the Animal Use and Care Committee of Southern Medical University (approved code: SMUL2021177, approved date: 12 December 2021). The CUMS procedure was carried out according to a protocol described previously. Except for those in the control group, mice were randomly exposed to two mild unpredictable stressors per day for 3 weeks. The stressors included water deprivation, restraint, tilted cage, wet/no bedding, rotation, peppermint, noise, and inverted light off/on. Mice in the control group were group housed without any stressors throughout the procedure. […] NSFT was performed after 16 h food deprivation, as described previously. The mouse was placed in an open field (24 × 40 × 14 cm), where a new chow was put in the center, and the latency time to bite food was counted over 10 min. Home cage feeding within a 20 min period was measured after the test. FST was carried out according to a protocol described previously. The mouse was placed into a beaker (Bomex, Beijing, China) with a height of 18 cm filled with water (22 ± 1 °C) for 6 min. The immobile time was measured during minutes 2–6. TST was performed according to a previous description. The mouse was suspended from a hook that hung from a suspension bar by placing a piece of adhesive tape on its tail about 1 cm away from the tip. The immobile time during minutes 2–6 was measured.

Test [2] deals with CUMS mice. The experiment in a line: Tail suspension test (TST) in CUMS mice. In kind it is in vivo, mouse. How it is done: as §1
Test [3] concerns c-Fos. Briefly: c-Fos immunohistochemistry in mPFC of CUMS mice. In kind it is in vivo, mouse. Conditions: 10 mg/kg i.p. As to the method: Figure 7 SYR effects on the expression of c-Fos and synaptic proteins in mPFC. (A) Representative immunohistochemical images of c-Fos expression in mPFC under the indicated treatments. Immunohistochemistry of c-Fos was performed with mPFC slices as described in Section 4. The slices were re-probed with anti-DAPI antibody. Immunofluorescence images for c-Fos (green) and DAPI (blue) were acquired by confocal microscopy. (B) Quantitative analysis for c-Fos expression in mPFC with various treatments. Protein expression is expressed as a percentage of c-Fos fluorescence measured in the control group. Bars represent the mean ± SEM (n = 4). * p < 0.05, ** p < 0.01 compared with the control or CUMS group by one-way ANOVA followed by post hoc tests, respectively. (C) Representative immunoblots of the synaptic proteins BDNF, PSD-95, GluA1, and vGluT1 with various treatments. (D–G) Quantification of the expression of the synaptic proteins BDNF (D), PSD-95 (E), GluA1 (F), and vGluT1 (G). The expression level is expressed as a percentage of the integrated density obtained from the control group. Bars represent the mean ± SEM (n = 4). * p < 0.05, ** p < 0.01 by one-way ANOVA followed by post hoc tests.
Mouse mPFC and hippocampal slices were prepared as previously described. […]

In test [4] the test system is c-Fos. The experiment in a line: c-Fos immunohistochemistry in hippocampus of CUMS mice. In kind it is in vivo, mouse. Conditions: same dosage as fluoxetine (10 mg/kg i.p.). The source says:
Figure 8 SYR effects on the expression of c-Fos and synaptic proteins in the hippocampus. (A) Representative immunohistochemical images of c-Fos expression in the hippocampus with the indicated treatments. (B) Quantitative analysis for hippocampal c-Fos expression with various treatments. Protein expression level is expressed as a percentage of c-Fos fluorescence measured in the control group. Bars represent the mean ± SEM (n = 4). ** p < 0.01 compared with the control or CUMS group by one-way ANOVA followed by post hoc tests. (C) Representative immunoblots of the synaptic proteins BDNF, PSD-95, GluA1, and vGluT1 with various treatments. (D–G) Quantification of the expression of synaptic proteins BDNF (D), PSD-95 (E), GluA1 (F), and vGluT1 (G). The expression level is expressed as a percentage of the integrated density obtained from the control group. Bars represent the mean ± SEM (n = 4). * p < 0.05, ** p < 0.01 by one-way ANOVA followed by post hoc tests.
Mouse mPFC and hippocampal slices were prepared as previously described. Briefly, mice were deeply anesthetized with 4% pentobarbital sodium (Sigma-Aldrich, Saint Louis, MI, USA), and perfused transcardially with PBS, followed by 4% phosphate-buffered paraformaldehyde. […]

[5] abbreviates: 5 mg/kg, i.p., once per day day 7 to 21.

As to `COc1cc([C@@H]2OC[C@@H]3[C@H]2CO[C@H]3c2cc(OC)c(O)c(OC)c2)cc(OC)c1O` [SYR, (-)-syringaresinol], the IC50 is 9.98 ± 1.22 µM on hSERT L565A and 2.32 ± 0.02 µM on hSERT S438T. Besides, the “reversal of behavioral abnormalities in NSFT” value in the test with CUMS mice [1] (setting [5]) is on record as “did not exhibit a significant response”. Besides, the “effect in NSFT” value in the test with CUMS mice [1] (10 or 20 mg/kg (i.p.)) was “remarkable antidepressant-like effects”. Moreover, in the test with CUMS mice [2] (setting [5]), the “CUMS-induced increase in immobility time in TST” value was “effectively attenuate”. The “effect in TST” value with CUMS mice [2] (10 or 20 mg/kg (i.p.)) is reported as “remarkable antidepressant-like effects”. Besides, the “CUMS-induced decrease in expression of c-Fos in mPFC” value in the test with c-Fos [3] is “significantly elevated”. In addition, the “CUMS-induced decrease in expression of c-Fos in the hippocampus” value in the test with c-Fos [4] is listed as “effectively alleviate”.
